Experimental data from PMC4046051, “Two M-T hook residues greatly improve the antiviral activity and resistance profile of the HIV-1 fusion inhibitor SC29EK” (Retrovirology, 2014).
Peptide text beside a SMILES is read from it.

Key:
[1] = target: T1, NHR peptide N36 (HIV-1 gp41) (Human immunodeficiency virus type 1 group M subtype B, UniProt P04578); assay: CD thermal denaturation of 6-HB formed by CHR peptide and N36; format: binding; conditions: CHR peptide + N36, each 10 μM in PBS pH 7.2; CD at 222 nm, 20-98°C
T1 construct: made in house; host or cells: chemical synthesis (solid-phase FMOC), no expression host
T1 sequence (P04578 546-581): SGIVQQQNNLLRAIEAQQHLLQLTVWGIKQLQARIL
Protocol: CD spectroscopy was performed according to our protocols described previously. […] The final concentration of each peptide was 10 μM in PBS buffer (pH 7.2). The CD spectra were acquired on a Jasco spectropolarimeter (model J-815) using a 1 nm bandwidth with a 1 nm step resolution from 195 to 260 nm at room temperature. The spectra were corrected by subtraction of a blank corresponding to the solvent. Data were averaged over three accumulations. The α-helical content was calculated from the CD signal by dividing the mean residue ellipticity [θ] at 222 nm by the value expected for 100% helix formation (-33,000 degrees.cm^2.dmol^-1). The thermal denaturation experiment was performed by monitoring the change in ellipticity [θ] at 222 nm at the increasing temperature (20–98°C) using temperature controller. The temperature was increased at a rate of 1.2°C per min; data were acquired at a 1 nm bandwidth at 222 nm at a frequency of 0.25 Hz. The melting curve was smoothened, and the midpoint of the thermal unfolding transition (Tm) values were taken as the maximum of the derivative d [θ]222/dT. The Tm value was detected at a peptide concentration of 10 μM in PBS buffer.

[2] = target: T1, NHR peptide N36 (HIV-1 gp41); assay: Isothermal titration calorimetry (ITC) with N36; format: binding; conditions: 25°C
Protocol: ITC assay was performed using an ITC200 Microcalorimeter instrument (MicroCal, USA) as described previously. In brief, 1 mM N36 dissolved in ddH20 was injected into the chamber containing 100 μM SC29EK or MT-SC29EK. The experiments were carried out at 25°C. The time between injections was 240 s and the stirring speed was 500 rpm. The heats of dilution were determined in control experiments by injecting N36 into ddH20 and subtracted from the heats produced in the corresponding peptide-peptide binding experiments. Data acquisition and analysis were performed using MicroCal Origin software (version 7.0).

[3] = target: T2, six-helical bundle (6-HB) of N36 and biotinylated-C34 (Human immunodeficiency virus type 1 group M subtype B, UniProt P04578); assay: Inhibition of 6-HB formation, NC-1 capture ELISA; format: biochemical, HIV-1
T2 construct: made in house; host or cells: chemical synthesis (solid-phase FMOC), no expression host
T2 sequence (P04578 546-581): as above
Protocol: The 6-HB core-specific monoclonal antibody NC-1 was obtained from Dr. Shibo Jiang in the New York Blood Center (New York, NY) through the ARRRP, Division of AIDS, NIAID, National Institute of Health. The inhibitory activity of SC29EK or MT-SC29EK on the 6-HB formation was measured by a modified ELISA as previously described. Briefly, a 96-well polystyrene plate was coated with 2 μg/ml NC-1 in 0.1 M Tris buffer (pH 8.8). A tested peptide at graded concentrations was mixed with the biotinylated-C34 (0.1 μM) and incubated with N36 (0.1 μM) at room temperature for 30 min. The mixture was then added to the NC-1-coated plate, followed by incubation for 30 min and washing with a washing buffer (PBS containing 0.1% Tween 20) three times. Then horseradish peroxidase (HRP)-labeled streptavidin (Invitrogen) and the substrate 3,3,5,5- tetramethylbenzidine (Sigma) were sequentially added. Absorbance at 450 nm (A450) was measured using an ELISA reader.

HIV-1NL4-3 pseudovirus = format: cell-based
Protocol: (§1) The inhibition of peptides on the HIV-1 entry was determined by single-cycle infection assay as described previously. Briefly, HIV-1 pseudovirus was generated by cotransfecting 293 T cells with an Env-expressing plasmid and a backbone plasmid pSG3^Δenv that encodes Env-defective, luciferase-expressing HIV-1 genome. The supernatants were harvested and filtered 48 h after transfection and 50% tissue culture infectious dose (TCID50) was determined in TZM-bl cells. The peptides were prepared with 3-fold dilutions and mixed with 100 TCID50 viruses and then incubated 1 h at room temperature. The mixture was added to TZM-bl cells (10^4/well) and incubated 48 h at 37°C. The luciferase activity was measured using luciferase assay reagents and a Luminescence Counter (Promega).

wild-type HIV-1NL4-3 = format: cell-based
Protocol: The inhibition of peptides on HIV-1 replication was determined by a molecular cloned wild-type HIV-1NL4–3. In brief, the virus stock was harvested and quantified 48 h post-transfection. 100 TCID50 viruses were used to infect TZM-bl cells in the presence or absence of serially diluted peptides. Two days post-infection, the cells were harvested and lysed in reporter lysis buffer and the luciferase activity was measured as described above.

HIV-1 NL4-3 WT = assay: Inhibition of T20-resistant HIV-1 variants panel: WT; format: cell-based
Protocol: as §1

HIV-1 NL4-3 I37T = assay: Inhibition of T20-resistant HIV-1 variants: I37T; format: cell-based
Protocol: as §1

HIV-1 NL4-3 V38A = assay: Inhibition of T20-resistant HIV-1 variants: V38A; format: cell-based
Protocol: as §1

HIV-1 NL4-3 V38M = assay: Inhibition of T20-resistant HIV-1 variants: V38M; format: cell-based
Protocol: as §1

HIV-1 NL4-3 Q40H = assay: Inhibition of T20-resistant HIV-1 variants: Q40H; format: cell-based
Protocol: as §1

HIV-1 NL4-3 N43K = assay: Inhibition of T20-resistant HIV-1 variants: N43K; format: cell-based
Protocol: as §1

HIV-1 NL4-3 D36S/V38M = assay: Inhibition of T20-resistant HIV-1 variants: D36S/V38M; format: cell-based
Protocol: as §1

HIV-1 NL4-3 I37T/N43K = assay: Inhibition of T20-resistant HIV-1 variants: I37T/N43K; format: cell-based
Protocol: as §1

HIV-1 NL4-3 V38A/N42T = assay: Inhibition of T20-resistant HIV-1 variants: V38A/N42T; format: cell-based
Protocol: as §1

[4] = mean ± SD of three independent experiments, SD

CC[C@H](C)[C@H](NC(=O)[C@H](CC(C)C)NC(=O)[C@H](CCC(=O)O)NC(=O)[C@H](CCC(=O)O)NC(=O)[C@@H](NC(=O)[C@H](CCCCN)NC(=O)[C@H](CCCCN)NC(=O)[C@@H](NC(=O)[C@H](Cc1ccc(O)cc1)NC(=O)[C@H](CCC(=O)O)NC(=O)[C@H](CCC(=O)O)NC(=O)[C@@H](NC(=O)[C@H](CCCCN)NC(=O)[C@H](CCCCN)NC(=O)[C@H](CC(=O)O)NC(=O)[C@H](Cc1c[nH]c2ccccc12)NC(=O)[C@H](CCC(=O)O)NC(=O)[C@H](CCC(=O)O)NC(=O)[C@H](Cc1c[nH]c2ccccc12)NC(=O)[C@@H](NC(=O)[C@H](CCSC)NC(C)=O)[C@@H](C)O)[C@@H](C)CC)[C@@H](C)O)[C@@H](C)CC)C(=O)N[C@@H](CCCCN)C(=O)N[C@@H](CCCCN)C(=O)N[C@@H](CO)C(=O)N[C@@H](CCC(=O)O)C(=O)N[C@@H](CCC(=O)O)C(=O)N[C@@H](CCC(N)=O)C(=O)N[C@@H](CCC(N)=O)C(=O)N[C@@H](CCCCN)C(=O)N[C@@H](CCCCN)C(=O)N[C@@H](CC(N)=O)C(N)=O [MT-SC29EK] (Ac-MTWEEWDKKIEEYTKKIEELIKKSEEQQKKN-NH2)
Tm (midpoint of the thermal unfolding transition) of 6-HB [1]: 79.1 °C
Kd ([2]; 1 mM N36 injected into 100 μM peptide, read-out: binding constant (K) (converted)): 15.5 nM
fold increase of K value compared to SC29EK [2]: 4.7 fold
fold increase of 6-HB blocking potency over SC29EK [3]: 23 fold
IC50 ([3]; biotinylated-C34 0.1 μM, N36 0.1 μM, 30 min room temperature, 3 independent experiments): 600 nM
fold increased potency over SC29EK, entry (HIV-1NL4-3 pseudovirus): 3.1 fold
IC50 (HIV-1NL4-3 pseudovirus; 100 TCID50, TZM-bl cells, 48 h, luciferase, mean ± SD of three independent experiments, SD, read-out: IC50 Entry): 0.7 nM
fold increase of potency over SC29EK, replication (wild-type HIV-1NL4-3; wild-type HIV-1NL4-3): 4.5 fold
IC50 (wild-type HIV-1NL4-3; wild-type HIV-1NL4-3, 100 TCID50, TZM-bl cells, two days, luciferase, mean ± SD of three independent experiments, SD, read-out: IC50 Replication): 0.2 nM
n-fold relative to the IC50 of the wild-type (WT) virus (HIV-1 NL4-3 WT): 1
IC50 (HIV-1 NL4-3 WT; [4]): 0.6 ± 0.1 nM
n-fold relative to the IC50 of the wild-type (WT) virus (HIV-1 NL4-3 I37T): 1.3
IC50 (HIV-1 NL4-3 I37T; [4]): 0.8 ± 0.2 nM
n-fold relative to the IC50 of the wild-type (WT) virus (HIV-1 NL4-3 V38A): 1
IC50 (HIV-1 NL4-3 V38A; [4]): 0.6 ± 0.1 nM
n-fold relative to the IC50 of the wild-type (WT) virus (HIV-1 NL4-3 V38M): 2.8
IC50 (HIV-1 NL4-3 V38M; [4]): 1.7 nM
n-fold relative to the IC50 of the wild-type (WT) virus (HIV-1 NL4-3 Q40H): 1.3
IC50 (HIV-1 NL4-3 Q40H; [4]): 0.8 ± 0.1 nM
n-fold relative to the IC50 of the wild-type (WT) virus (HIV-1 NL4-3 N43K): 12
IC50 (HIV-1 NL4-3 N43K; [4]): 7.2 ± 0.2 nM
n-fold relative to the IC50 of the wild-type (WT) virus (HIV-1 NL4-3 D36S/V38M): 2
IC50 (HIV-1 NL4-3 D36S/V38M; [4]): 1.2 nM
n-fold relative to the IC50 of the wild-type (WT) virus (HIV-1 NL4-3 I37T/N43K): 35.3
IC50 (HIV-1 NL4-3 I37T/N43K; [4]): 21.2 ± 4.4 nM
n-fold relative to the IC50 of the wild-type (WT) virus (HIV-1 NL4-3 V38A/N42T): 1
IC50 (HIV-1 NL4-3 V38A/N42T; [4]): 0.6 nM
